# Values quoted from earlier work, collected in PMC3238097 (Journal of the American Chemical Society, 2011).
substance,measurement,value
naphthalene-diphenylalanine-glucosamine,hydrogel formation,fails to form hydrogel properly
